Test results as given in ChEMBL document CHEMBL3588750 (Medchemcomm, 2014).

Columns and labels:
[1] = biological target: Somatostatin receptor type 5 (Homo sapiens, UniProt P35346); assay: Inhibition of radiolabeled somatostatin-14 binding to human recombinant SSTR5
[2] = biological target: Somatostatin receptor type 4 (Homo sapiens, UniProt P31391); assay: Inhibition of radiolabeled somatostatin-14 binding to human recombinant SSTR4
Sequence of Somatostatin receptor type 4 (P31391 whole entry): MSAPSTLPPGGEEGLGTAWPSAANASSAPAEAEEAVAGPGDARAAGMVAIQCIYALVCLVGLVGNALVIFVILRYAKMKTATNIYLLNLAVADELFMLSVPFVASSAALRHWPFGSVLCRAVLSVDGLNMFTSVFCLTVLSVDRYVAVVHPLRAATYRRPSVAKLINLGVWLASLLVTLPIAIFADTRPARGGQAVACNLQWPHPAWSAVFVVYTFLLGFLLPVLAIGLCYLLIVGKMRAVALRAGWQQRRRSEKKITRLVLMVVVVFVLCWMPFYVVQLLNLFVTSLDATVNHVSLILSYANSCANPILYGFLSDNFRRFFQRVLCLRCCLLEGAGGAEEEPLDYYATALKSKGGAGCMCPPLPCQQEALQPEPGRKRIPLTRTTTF

Sequence of Somatostatin receptor type 5 (P35346 whole entry): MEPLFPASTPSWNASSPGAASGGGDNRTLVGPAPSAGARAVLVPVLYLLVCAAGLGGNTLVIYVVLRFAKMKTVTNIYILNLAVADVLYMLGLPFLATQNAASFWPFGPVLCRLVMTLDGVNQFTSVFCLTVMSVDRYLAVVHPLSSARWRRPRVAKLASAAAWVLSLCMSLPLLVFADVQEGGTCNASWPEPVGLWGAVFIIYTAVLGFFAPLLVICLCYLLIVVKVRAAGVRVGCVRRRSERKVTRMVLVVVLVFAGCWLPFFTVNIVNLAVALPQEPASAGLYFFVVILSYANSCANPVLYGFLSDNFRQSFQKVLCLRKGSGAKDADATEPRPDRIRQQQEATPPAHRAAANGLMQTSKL

| SMILES | Ki ([1]; read-out: Ki) | Ki ([2]; read-out: Ki) | Ki [2] | Ki [1] |
| --- | --- | --- | --- | --- |
| CC(=O)O[C@H]1[C@H](OC(C)=O)[C@@H](CCCCCN)N(Cc2ccc3ccccc3c2)C[C@@H]1OC(C)=O | 7.7 µM | 5.4 µM | – | – |
| NCCCCC[C@@H]1[C@@H](O)[C@H](O)[C@@H](O)CN1Cc1ccc2ccccc2c1 | 34 µM | – | Not Active | – |
| NCCCCC[C@@H]1[C@@H](OCc2ccccc2)[C@H](OCc2ccccc2)[C@@H](OCc2ccccc2)CN1Cc1ccc2ccccc2c1 | 2 µM | 1.9 µM | – | – |
| NCCCCCOC[C@@H]1[C@@H](O)[C@H](O)[C@@H](O)CN1CCc1c[nH]c2ccccc12 | – | 3.2 µM | – | Not Active |
